Experimental data reported in ChEMBL document CHEMBL3507680, “University of Dundee, Gates Library screen for HepG2 cell viability”.

Assay: Human HepG2 cell viability assay in 384 well format
Format: toxicity, cell-based
Design: dose 125 nL, time 70.5 hour; cytotoxicity at 70.5 h: concentration not given beside the values
Settings: HepG2 cells, read-out: Inhibition

Structure (SMILES)	cytotoxicity at 70.5 h [%]
O=C1CC(c2ccncc2)C2(CCN(CCO)CC2)N1 (centres undefined)	-10.4
COCC(=O)N1CCC2(CCN(Cc3ccccn3)CC2)CC1	-23.5
O=C1NCCN(CC2CC2)C12CCN(Cc1ccc3c(c1)OCO3)CC2	41.2
O=C1NCCN(CC2CC2)C12CCN(Cc1ccco1)CC2	12.8
O=C(c1ccco1)N1CCC2(CC1)C(=O)NCCN2CC1CC1	-26.8
CCOC1COC2(CCN(S(=O)(=O)c3cccc(F)c3)CC2)C1 (centres undefined)	-15.5
CNc1cc(-c2ccncc2)ncn1	23.1
Cc1ncncc1-c1ccnc(N)n1	-2.72
Cc1ncncc1-c1ccnc(N(C)C)n1	-1.27
C[C@@H](CO)Nc1cc(-c2cn[nH]c2)ncn1	-0.96
Cc1ccnc(N2CCC(C(N)=O)CC2)n1	32.9
CC[C@@H](CO)Nc1cc(-c2cn[nH]c2)ncn1	3.42
CCN1CC(=O)c2sc(NC(C)C)nc2C1	5.33
CC(C)(CO)Nc1cc(-c2ccccc2)ncn1	-2.92
CC(=O)NCC[C@H]1CC(C)(C)Oc2ccccc21	-4.17
CC(C)(C)CCNc1nccc(-c2c[nH][nH]c2=O)n1	-4.19
CC(C)Nc1nc2c(s1)C(=O)CN(CC1CC1)C2	2.03
OCCNc1nccc(-c2c[nH]nc2-c2ccco2)n1	4.01
CN(C)c1ncc2c(n1)N(C)CCN(CC1CC1)C2=O	-2.69
COc1ccc2c(c1)[C@@H](CCNC(C)=O)CC(C)(C)O2	-1.01
O=c1[nH][nH]cc1-c1ccnc(NCCc2cccnc2)n1	-2.07
O=c1[nH][nH]cc1-c1ccnc(NCCN2CCCCC2)n1	30.8
c1cc(-c2n[nH]cc2-c2ccnc(N3CCCC3)n2)ccn1	-2.36

Structure (SMILES)	cytotoxicity at 70.5 h [%]
O=c1[nH][nH]cc1-c1ccnc(NCCCN2CCOCC2)n1	-1.38
Cc1ncc(-c2ccnc(NC3CC3)n2)c(-c2cccnc2)n1	14.2
CC(=O)Nc1nc2c(s1)C(C)(C)Nc1ccccc1S2	-2.23
COc1ccc2[nH]cc(-c3ccnc(NC4CCCC4)n3)c2c1	-0.782
N[C@@H]1CCN(Cc2cc(-c3ccccc3OC(F)(F)F)no2)C[C@H]1O	-10.6
Nc1cc(-c2nccnc2N2CCCC2)c2cc[nH]c2n1	-11.5
COc1ccccc1OCCCc1cncc(C(N)=O)c1	-14.6
Cc1nonc1C1CCCN1C(=O)CCc1cc2n(n1)CCCNC2 (centres undefined)	-7.72
COc1cc(CN2CCCC2)ccc1Oc1ncccc1C(F)(F)F	28.7
O=C(CN1CCOCS1(=O)=O)NCc1ccccc1	25.7
CC(C)N1CCC(CC(=O)NC(C(=O)O)c2ccc(F)cc2)CC1 (centres undefined)	-10.8
CCc1nnc(N2C[C@@H](CN(C)CCO)[C@@H](CO)C2)s1	-12.4
CCc1cc(C(=O)N[C@H]2CN(CCS(C)(=O)=O)C[C@@H]2C2CC2)[nH]n1	-13.2
COc1ccccc1CN1C(=O)O[C@@H]2CN(S(=O)(=O)N(C)C)C[C@@H]21	-0.664
CCc1nccn1CCCn1ccnc1-c1[nH]cnc1C	5.17
COc1cccc(N2CCN(C(=O)CO)CC2=O)c1	-2.57
O=C(O)[C@@H]1CN(C(=O)c2ccc(F)c(F)c2)C[C@H]1c1cccc(F)c1	-11.2
CCCN1CC2(CCN(c3ncc(F)cn3)CC2)CC1C(=O)O (centres undefined)	-7.12
CC(C)OC(=O)N1CCC(Cc2ccc(C(=O)O)cc2)C1 (centres undefined)	27.1
C[C@@H]1CN(C2(C(=O)N3CC[C@H](O)C3)Cc3ccccc3C2)C[C@H](C)O1	-11.9
CC(NC(=O)C1CCCC1)c1nncn1C(C)C (centres undefined)	9.12
Clc1ccccc1-c1cc(CNc2ncnc3c2CCNCC3)no1	12.2
O=C(CC1=CSC2=NCCN12)N1CCCC(CCc2cccc(F)c2)C1 (centres undefined)	-13.5

Structure (SMILES)	cytotoxicity at 70.5 h [%]
O=C(c1ccoc1)N1CCn2nc(CN3CCSCC3)cc2C1	17.6
CCC(C)Oc1ccc(CNCCNS(C)(=O)=O)cc1Cl (centres undefined)	-0.417
CCO[C@H]1C[C@@H](O)C12CCN(S(=O)(=O)c1ccccc1OC)CC2	-13.9
CNc1nc(C)c(C(=O)N2CCCCC2CCN2CCOCC2)s1 (centres undefined)	-0.313
COc1ccccc1OC1CN(C(=O)Cc2c(C)nc(N)nc2C)C1	1.7
Cc1cc(N2CCN(Cc3ccccc3)CC(O)C2)nc(N)n1 (centres undefined)	-2.11
O=C(CCN1CCCCO1)N1CCC(CO)(CCc2ccccc2)CC1	-10.2
CO[C@H]1CN(C(=O)c2nc(-c3ccccc3)[nH]c2C)CC[C@H]1N	25.8
CCn1ncnc1CN1CCc2[nH]cnc2C1Cc1ccccc1 (centres undefined)	-5.67
COCCn1ccnc1C1CCN(Cc2ccccc2C#N)CC1	-8.7
Cc1ccn(CCNc2ncnc3c2CCN(c2cnccn2)CC3)n1	2.31
C[C@@H]1CN(Cc2cc(C3CCCCC3)no2)CC[C@@]1(O)C1CC1	6.92
COCC(=O)N1CCc2[nH]nc(-c3ccc4c(c3)OCO4)c2C1	-3.34
CCn1ncnc1CN1CCc2[nH]cnc2C1CCc1ccccc1 (centres undefined)	-4.41
Cc1oc(-c2cccc(F)c2F)nc1CN(C)CCO	-7.35
CCOCc1nc(-c2ccc(F)cc2Cl)n(C)n1	-15.1
OC(c1ccccc1)c1cn(C2CCN(Cc3nccs3)CC2)nn1 (centres undefined)	-11.3
Cc1ccc(N2CCCC(c3[nH]ncc3-c3ccccc3)C2)nn1 (centres undefined)	-8.56
COc1ccc(-c2ncccc2C(=O)N2C[C@H]3CC[C@@H]2C3)cn1	-2.51
CCc1nc(NCC2CCCN(C(=O)C3CC3)C2)c2cnn(C)c2n1 (centres undefined)	-16.2
N#Cc1cccc(N2CCCC(CO)(CCOc3ccccc3)C2)n1 (centres undefined)	8.55
O=C(CCC1CC1)N1CCC(n2cc(C3(O)CCCC3)nn2)CC1	24.3
COCC(=O)N1CC[C@]2(O)CCN(C(=O)CCc3ccsc3)C[C@@H]2C1	-10.1

Structure (SMILES)	cytotoxicity at 70.5 h [%]
CN1CCN(C[C@@H]2CN(Cc3c(Cl)cncc3Cl)C[C@@H]2CO)CC1	-11.7
OC1(CNCCc2nc3c(s2)CCCC3)CCNC1 (centres undefined)	-2.83
COCCN1CCN(C(=O)c2ccccc2C(C)=O)[C@H]2CS(=O)(=O)C[C@H]21	-5.79
COCCN1CCC(c2nc3c([nH]2)CC(C)(C)CNC3=O)CC1	-4.63
COCCN1C(=O)[C@H]2CC[C@@H]1CN(Cc1nnc(-c3ccccc3)o1)C2	-4.89
Cc1cnc(C)c(-c2cc(O)c3c(c2)CN(c2ncccn2)CCO3)n1	48.2
Cc1ccc([C@H]2CN(C(=O)C3CCC3)C[C@@H]2N)o1	-1.49
COc1ccc2[nH]nc(CN3CCC(C(=O)N4CCCCC4)CC3)c2c1	-1.62
CC1(C)CC1(C(=O)N1CC(c2cccnc2)C1)c1ccccc1F (centres undefined)	-7.64
O=C(CN1CCCC1c1nc2cc(F)ccc2[nH]1)NCc1ccccn1 (centres undefined)	-3.28
FC(F)(F)C1CN(c2nc(-c3ccccc3)no2)CCO1 (centres undefined)	-14.1
CCOCCNC(=O)c1cc(COc2cncc(Cl)c2)on1	-0.86
Nc1nc2c(c(N3CCCC(OCc4ccccn4)C3)n1)CCNCC2 (centres undefined)	-6.98
O=C(CN1CC(c2ccccc2)CC1=O)NCc1cc2n(n1)CCNC2 (centres undefined)	-8.02
COCCCN(C(=O)c1ccc(-n2ccnc2)cc1)C1CCN(C)CC1	35.1
O=C(CC1=CSC2=NCCCN12)N1CCCCCC1c1ccco1 (centres undefined)	9.09
CC(C)n1ccnc1C1CCN(C(=O)c2ccccc2N(C)C)CC1	-2.41
CCOc1ccccc1N1CCN(CC2(O)CCCNC2)CC1 (centres undefined)	-1.19
COc1cc(C(=O)N2CCC3(CC2)Nc2ccccc2NC3=O)ccn1	19
c1ccc(Cc2nc(CNC3CCC4(CCNCC4)CC3)no2)cc1	-4.21
Cc1cccn2c(CNC(C)CCn3cccn3)cnc12 (centres undefined)	3.49
Cc1nc(CCC(=O)N2Cc3cnc(-c4ccccc4)nc3C2)n[nH]1	-14.8
Cc1nonc1OCCNC(=O)CCCc1ccc(Cl)cc1	-5.01

Structure (SMILES)	cytotoxicity at 70.5 h [%]
Cc1cccc(=O)n1CCC(=O)N(C)Cc1cccc2ncccc12	-15.2
Cc1ccc(-c2nc(CNS(=O)(=O)N(C)C)[nH]c2-c2ccccn2)cc1	-2.34
CCCN1CCC(N2CCN(c3cccc(C)n3)CC2)CC1	5.86
O=C(CCC1CCCN(C(=O)CCN2CCCCO2)C1)N1CCCC1 (centres undefined)	-5.73
CCc1nnc(CN(C)Cc2cccc(C(=O)Nc3cnn(C)c3)c2)o1	3.92
Fc1ccccc1Cc1noc(CN2CC[C@@H]3CCCC[C@H]3C2)n1	-4.61
O=C(O)C1(n2ccnc2)CCN(Cc2cc3ccccc3o2)CC1	-5.42
CN(Cc1n[nH]c2c1CCCC2)C(=O)c1cccc(CCC(C)(C)O)c1	-4.47
NCc1cc(-c2ccccc2)n2nccc2n1	-10.1
COc1ccc(-c2cc(CN)nc3ccnn23)cc1	-12.4
CSc1ccc(-c2cc(CN)nc3ccnn23)cc1	-12.2
O=S(=O)(C1CC1)N1CCC2(CC1)CC(Oc1cccnc1)CO2 (centres undefined)	-11.5
CCc1ncnc2c1CCN(Cc1ccc(OC)cc1)CC2	-8.97
c1cc(CN2Cc3nnn(CC4CC4)c3C(COCC3CC3)C2)co1 (centres undefined)	-8.27
COCC1CN(CC2CC2)Cc2nn(C)cc21 (centres undefined)	13.1
Cc1ccc(N2CCC3(CCCN(C(=O)c4cccnc4)C3)C2)nn1 (centres undefined)	18.8
CC(=O)N1CC(=O)N(c2ccccc2)CC12CCN(CC1CC1)C2 (centres undefined)	7.19
CN(C)C[C@H]1OC[C@@H]2CCN(S(=O)(=O)c3cccs3)C[C@@H]21	12.4
CN1CCCn2c(nc(CNC(=O)c3ccsc3)cc2=O)C1	-15.1
CN1CC(=O)N(c2cnn(C)c2)CC12CCN(C(=O)c1ccsc1)C2 (centres undefined)	-7.55
CN1CC(=O)N(c2ccsc2)CC12CCN(C(=O)c1ccccc1)C2 (centres undefined)	-12.7
COc1ccc(CN2C[C@@H]3COC[C@]3(CN(C)C)C2)cc1	-12.6
